Test results taken from patent publication EP0450097B1, “BENZOHETEROCYCLIC COMPOUNDS” (OTSUKA PHARMACEUTICAL CO., LTD., priority 1989, dated 1991).

Assays:
V₁ receptor = molecular target: T1, V₁ receptor (Rattus norvegicus, UniProt P30560); experiment: V₁ receptor binding assay ([³H]-Arg-vasopressin, rat liver plasma membrane preparations); details: 37°C for 10 minutes
T1 construct: Using rat liver plasma membrane preparations; from tissue; host or cells: rat liver plasma membranes
Method: Using rat liver plasma membrane preparations prepared according to Ichihara's method [cf: Akira Ichihara, J. Bio. Chem., 258, 9283 (1983)], the plasma membrane (50000dpm, 2x10⁻¹⁰ M) of [³H]-Arg-vasopressin and a test compound (60 µg, 10⁻⁸-10⁻⁴ M) are incubated at 37°C for 10 minutes in 100 mM Tris-HCl buffer (pH: 8.0, 250 µl) containing 5 mM MgCl₂, 1 mM EDTA and 0.1 % BSA. After incubation, the mixture is filtered three times using the glass filter (GF/F) so as to separate the membrane preparation combined with vasopressin and then washed with the buffer (5 ml). This glass filter is taken out and mixed with liquid scintillation cocktail. The amount of [³H]-vasopressin combined with the membrane is measured by liquid scintillation counter and the rate of the inhibitory effect of the test compound is estimated according to the following equation. Rate of the inhibitory effect (%) = 100 -(C1 - B1)/(C0 - B1)X 100 [formula] C¹: The amount of [³H]-vasopressin combined with the membrane in the presence of the test compound (in prescribed amount). C⁰: The amount of [³H]-vasopressin combined with the membrane in the absence of the test compound. B¹: The amount of [³H]-vasopressin combined with the membrane in the presence of the excess amount of vasopressin (10⁻⁶ M).
The results are expressed as IC₅₀ values, which is the concentration of the test compound required to achieve the inhibitory effect in the rate of 50 %.

V₂ receptor = molecular target: T2, V₂ receptor (Rattus norvegicus, UniProt Q00788); experiment: V₂ receptor binding assay ([³H]-Arg-vasopressin, rat kidney plasma membrane preparations); details: 4°C for 3 hours
T2 construct: Using rat kidney plasma membrane preparations; from tissue; host or cells: rat kidney plasma membranes
Method in brief: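 Rat kidney plasma membranes incubated with [³H]-vasopressin and test compound, then filtered on GF/F glass filters and bound radioactivity counted by liquid scintillation.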

T2 sequence (Q00788 whole entry): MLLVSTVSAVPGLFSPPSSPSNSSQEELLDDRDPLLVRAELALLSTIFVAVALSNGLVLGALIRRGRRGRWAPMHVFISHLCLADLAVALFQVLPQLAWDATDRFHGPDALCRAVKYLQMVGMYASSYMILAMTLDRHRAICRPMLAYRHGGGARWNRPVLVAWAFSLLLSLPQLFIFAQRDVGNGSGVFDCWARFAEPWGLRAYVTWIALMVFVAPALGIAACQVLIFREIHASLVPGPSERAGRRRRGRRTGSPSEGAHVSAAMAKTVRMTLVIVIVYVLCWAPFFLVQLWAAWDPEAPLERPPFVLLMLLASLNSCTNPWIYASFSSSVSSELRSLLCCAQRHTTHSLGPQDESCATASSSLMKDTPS
T1 sequence (P30560 whole entry): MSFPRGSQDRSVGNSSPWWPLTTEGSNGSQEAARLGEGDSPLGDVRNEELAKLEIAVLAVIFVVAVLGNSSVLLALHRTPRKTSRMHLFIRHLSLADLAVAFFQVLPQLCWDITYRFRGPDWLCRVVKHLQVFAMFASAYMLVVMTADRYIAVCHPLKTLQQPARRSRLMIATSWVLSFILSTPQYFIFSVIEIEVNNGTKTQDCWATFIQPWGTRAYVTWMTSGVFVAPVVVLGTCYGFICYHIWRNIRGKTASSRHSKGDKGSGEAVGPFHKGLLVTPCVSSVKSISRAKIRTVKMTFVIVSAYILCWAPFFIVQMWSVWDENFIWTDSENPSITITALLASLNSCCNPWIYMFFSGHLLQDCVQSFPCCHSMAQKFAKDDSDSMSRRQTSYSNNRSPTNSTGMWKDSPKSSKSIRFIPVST

SMILES | IC50 (V₁ receptor) | IC50 (V₂ receptor)
CCN(CC)CCOc1ccccc1C(=O)Nc1ccc(C(=O)N2CCCCc3ccccc32)cc1 [compound 71] | 180 nM | 85 nM
CC(=O)NCCCCOc1ccccc1C(=O)Nc1ccc(C(=O)N2CCCCc3ccccc32)cc1 [compound 72] | 120 nM | 160 nM
O=C(Nc1ccc(C(=O)N2CCCCc3ccccc32)cc1)c1ccccc1OCCCCCCN1CCOCC1 [compound 74] | 100 nM | 510 nM
CN1CCN(CCCCCCOc2ccccc2C(=O)Nc2ccc(C(=O)N3CCCCc4ccccc43)cc2)CC1 [compound 75] | 69 nM | 300 nM
COc1cc(C(=O)N2CCCCc3ccccc32)ccc1NC(=O)C1CCCCC1 [compound 76] | 42 nM | 17 nM
COc1cc(C(=O)N2CCCCc3ccccc32)ccc1NC(=O)c1ccccc1 [compound 77] | 85 nM | 90 nM
Cc1cc(C(=O)N2CCCCc3ccccc32)ccc1NC(=O)c1ccccc1C [compound 78] | 100 nM | 84 nM
CN1CCCN(C(=O)c2ccc(NC(=O)C3CCCCC3)cc2)c2ccccc21 [compound 88] | 340 nM | 21 nM
Cc1ccccc1C(=O)Nc1ccc(C(=O)N2CCCN(C)c3ccccc32)cc1 [compound 90] | 380 nM | 14 nM
CCN(CC(=O)Nc1ccc(C(=O)N2CCCCc3ccccc32)cc1)c1ccccc1 [compound 114] | 11 nM | 6 nM
C=CCN(CC(=O)Nc1ccc(C(=O)N2CCCCc3ccccc32)cc1)c1ccccc1 [compound 115] | 12 nM | 6 nM
O=C(CNc1ccccc1Cl)Nc1ccc(C(=O)N2CCCCc3ccccc32)cc1 [compound 116] | 40 nM | 39 nM
CC(=O)OCCCCOc1ccccc1C(=O)Nc1ccc(C(=O)N2CCCCc3ccccc32)cc1 [compound 117] | 220 nM | 240 nM
NC(=O)COc1ccccc1C(=O)Nc1ccc(C(=O)N2CCCCc3ccccc32)cc1 [compound 119] | 49 nM | 59 nM
O=C(Nc1ccc(C(=O)N2CCCCc3ccccc32)cc1)c1ccccc1OCCCCO [compound 120] | 290 nM | 280 nM
CCOC(=O)COc1ccccc1C(=O)Nc1ccc(C(=O)N2CCCCc3ccccc32)cc1 [compound 121] | 450 nM | 180 nM
CCN(CC)C(=O)COc1ccccc1C(=O)Nc1ccc(C(=O)N2CCCCc3ccccc32)cc1 [compound 124] | 150 nM | 130 nM
CN(CCO)CCOc1ccccc1C(=O)Nc1ccc(C(=O)N2CCCCc3ccccc32)cc1 [compound 125] | 91 nM | 280 nM
C#CCN(CC(=O)Nc1ccc(C(=O)N2CCCCc3ccccc32)cc1)c1ccccc1 [compound 130] | 23 nM | 7 nM
Cc1ccccc1C(=O)Nc1ccc(C(=O)N2CCCC(O)c3ccccc32)cc1 (centres unmarked) [compound 143] | 150 nM | 8 nM

SMILES | IC50 (V₁ receptor) | IC50 (V₂ receptor)
COC1CCCN(C(=O)c2ccc(NC(=O)c3ccccc3C)cc2)c2ccccc21 (centres unmarked) [compound 147] | 280 nM | 9 nM
Cc1ccccc1C(=O)Nc1ccc(C(=O)N2CCCC(OCCCCN(C)C)c3ccccc32)cc1 (centres unmarked) [compound 161] | 140 nM | 9 nM
Cc1ccccc1C(=O)Nc1ccc(C(=O)N2CCCC(OCC(=O)N(C)C)c3ccccc32)cc1 (centres unmarked) [compound 163] | 220 nM | 9 nM
NC(=O)COC1CCCN(C(=O)c2ccc(NC(=O)c3ccccc3Cl)cc2)c2ccccc21 (centres unmarked) [compound 164] | 150 nM | 10 nM
Cc1ccccc1C(=O)Nc1ccc(C(=O)N2CCCC(OCCCN3C(=O)c4ccccc4C3=O)c3ccccc32)cc1 (centres unmarked) [compound 172] | 260 nM | 23 nM
Cc1ccccc1C(=O)Nc1ccc(C(=O)N2CCCC(OCCCN)c3ccccc32)cc1 (centres unmarked) [compound 173] | 150 nM | 8 nM
CC(=O)NCCCOC1CCCN(C(=O)c2ccc(NC(=O)c3ccccc3C)cc2)c2ccccc21 (centres unmarked) [compound 174] | 140 nM | 7 nM
Cc1ccccc1C(=O)Nc1ccc(C(=O)N2CCCC(OC(=O)N(C)C)c3ccccc32)cc1 (centres unmarked) [compound 187] | 450 nM | 29 nM
CN(C)C1CCCN(C(=O)c2ccc(NC(=O)c3ccccc3C(F)(F)F)cc2)c2ccccc21 (centres unmarked) [compound 188] | 470 nM | 39 nM
Cc1ccccc1C(=O)Nc1ccc(C(=O)N2CCSCc3ccccc32)cc1 [compound 192] | 54 nM | 11 nM
Cc1ccccc1C(=O)Nc1ccc(C(=O)N2CCC(=O)Cc3ccccc32)cc1 [compound 193] | 170 nM | 36 nM
CNC(=O)COC1CCCN(C(=O)c2ccc(NC(=O)c3ccccc3Cl)cc2)c2ccccc21 (centres unmarked) [compound 195] | 170 nM | 10 nM
CNC(=O)OC1CCCN(C(=O)c2ccc(NC(=O)c3ccccc3C)cc2)c2ccccc21 (centres unmarked) [compound 196] | 400 nM | 13 nM
O=C(Nc1ccc(C(=O)N2CCC=Cc3ccccc32)cc1)c1ccccc1Cl [compound 207] | 160 nM | 45 nM
Cc1ccccc1C(=O)Nc1ccc(C(=O)N2CCCC(C)c3ccccc32)cc1 (centres unmarked) [compound 208] | 110 nM | 7 nM
C=C1CCCN(C(=O)c2ccc(NC(=O)c3ccccc3C)cc2)c2ccccc21 [compound 209] | 74 nM | 4 nM
Cc1ccccc1C(=O)Nc1ccc(C(=O)N2CCC(O)Cc3ccccc32)cc1 (centres unmarked) [compound 214] | 270 nM | 58 nM
Cc1ccccc1C(=O)Nc1ccc(C(=O)N2CCCC(CO)c3ccccc32)cc1 (centres unmarked) [compound 215] | 130 nM | 6 nM
CCN(CC(=O)Nc1ccc(C(=O)N2CCCC(O)c3ccccc32)c(Cl)c1)c1ccccc1 (centres unmarked) [compound 222] | 96 nM | 10 nM
CC(=O)OCC1CCCN(C(=O)c2ccc(NC(=O)c3ccccc3C)cc2)c2ccccc21 (centres unmarked) [compound 231] | 160 nM | 7 nM

SMILES | IC50 (V₁ receptor) | IC50 (V₂ receptor)
Cc1ccccc1C(=O)Nc1ccc(C(=O)N2CCCC(COS(C)(=O)=O)c3ccccc32)cc1 (centres unmarked) [compound 235] | 88 nM | 6 nM
COc1cc(NC(=O)c2ccccc2C)ccc1C(=O)N1CCCC(O)c2ccccc21 (centres unmarked) [compound 238] | 390 nM | 20 nM
Cc1ccccc1C(=O)Nc1ccc(C(=O)N2CCCC(CN)c3ccccc32)cc1 (centres unmarked) [compound 244] | 230 nM | 18 nM
Cc1ccccc1C(=O)Nc1ccc(C(=O)N2CCCC(CN=[N+]=[N-])c3ccccc32)cc1 (centres unmarked) [compound 250] | 190 nM | 120 nM
O=C(Nc1ccc(C(=O)N2CCCC(NCc3ccccc3)c3ccccc32)cc1)c1ccccc1Cl (centres unmarked) [compound 252] | 360 nM | 63 nM
CC(=O)NCC1CCCN(C(=O)c2ccc(NC(=O)c3ccccc3C)cc2)c2ccccc21 (centres unmarked) [compound 255] | 46 nM | 5 nM
Cc1ccccc1C(=O)Nc1ccc(C(=O)N2CCC(C)C(O)c3ccccc32)cc1 (centres unmarked) [compound 256] | 49 nM | 4 nM
Cc1ccccc1C(=O)Nc1ccc(C(=O)N2CCCC(N(C)CC(N)=O)c3ccccc32)cc1 (centres unmarked) [compound 266] | 290 nM | 13 nM
Cc1ccccc1C(=O)Nc1ccc(C(=O)N2CCCC(CNC=O)c3ccccc32)cc1 (centres unmarked) [compound 269] | 480 nM | 3 nM
Cc1ccccc1C(=O)Nc1ccc(C(=O)N2CCCC(NC3CCN(Cc4ccccc4)CC3)c3ccccc32)cc1 (centres unmarked) [compound 274] | 110 nM | 24 nM
Cc1ccccc1C(=O)Nc1ccc(C(=O)N2CCCC(OC(=O)CN(C)C)c3ccccc32)cc1 (centres unmarked) [compound 275] | 180 nM | 18 nM
Cc1ccccc1C(=O)Nc1ccc(C(=O)N2CCCC(OCC(=O)N3CCN(C)CC3)c3ccccc32)cc1 (centres unmarked) [compound 277] | 230 nM | 16 nM
Cc1ccccc1C(=O)Nc1ccc(C(=O)N2CCCC(OCC(=O)N3CCOCC3)c3ccccc32)cc1 (centres unmarked) [compound 278] | 300 nM | 13 nM
Cc1ccccc1C(=O)Nc1ccc(C(=O)N2CCCC(OCC(=O)N3CCSCC3)c3ccccc32)cc1 (centres unmarked) [compound 279] | 150 nM | 8 nM
Cc1ccccc1C(=O)Nc1ccc(C(=O)N2CCCC(NC(=O)Nc3ccccc3)c3ccccc32)cc1 (centres unmarked) [compound 280] | 470 nM | 45 nM
Cc1ccccc1C(=O)Nc1ccc(C(=O)N2CCCC(OCC(=O)N3CC[S+]([O-])CC3)c3ccccc32)cc1 (centres unmarked) [compound 281] | 180 nM | 11 nM
Cc1ccccc1C(=O)Nc1ccc(C(=O)N2CCCC(OCC(=O)N3CCCC3C(N)=O)c3ccccc32)cc1 (centres unmarked) [compound 284] | 290 nM | 19 nM
Cc1ccccc1C(=O)Nc1ccc(C(=O)N2CCCC(OCC(=O)NCC(N)=O)c3ccccc32)cc1 (centres unmarked) [compound 285] | 180 nM | 8 nM
